According to patent US20140228286A1, “SPECIFIC PDE4B-INHIBITORS FOR THE TREATMENT OF DIABETES MELLITUS” (BOEHRINGER INGELHEIM INTERNATIONAL GMBH, priority 2013, published 2014):

Columns and labels:
PDE4B = target: T1, PDE4B (Homo sapiens, UniProt Q07343); test: PDE4B Scintillation Proximity (SPA) Assay; format: biochemical; conditions: PDE4B active site fragment amino acids 152-484; [3H]cAMP; 30° C., one hour; read-out: Experimentally determined IC50-value for PDE4B inhibition
T1 construct: active site fragment comprising the amino acids 152-484
Source text: The IC50-values of the compounds of the invention (Examples 1.1 to 1.47) with respect to their PDE4B-inhibiting ability have been determined with a Scintillation Proximity (SPA) Assay (GE Healthcare, No. TRKQ7090). The Scintillation Proximity (SPA) Assay is based on the detection of the different affinities of the cyclic 3′-5′adenosine monophosphate (cAMP, low affinity) and the linear 5′-adenosine monophosphate (AMP, high affinity) to yttrium-silicate-scintillator beads. The cAMP-specific phosphodiesterase (PDE) PDE4B cleaves the 3′-phosphodiester bond of the tritium-labelled-[^3H]cAMP to the [^3H]5′-AMP. This [^3H]5′-AMP associates with the scintillator beads because of their higher affinity and causes scintillations (light flashes) which can be measured in a Wallac Microbeta Scintillation Counter.
10 μl of a [^3H]cAMP-solution (0.05 μCi in H2O, 10-30 Ci/mmol) are added to 89 μl of a PDE4B-enzyme-solution (active site fragment comprising the amino acids 152-484; 0.15-0.18 ng) in assay buffer (50 mM Tris HCl pH 7.5; 8.3 mM MgCl2; 1,7 mM ethylene glyclol tetraacetic acid (EGTA); 0.25 mg/ml bovine serum albumin (BSA)) and this mixture is incubated at 30° C. for one hour
a) without the compound to be tested (in the presence of 1 μl dimethylsulfoxide (DMSO), corresponding to 1% DMSO) and b) in the presence of the compound to be tested in a concentration of 125 μM, 25 μM, 5 μM, 1 μM, 200 nM, 40 nM, 8 nM, 1.6 nM, 0.32 nM, 0.064 nM, 0.0128 nM (dilution series in 5er-steps beginning from 125 μM until 0.0128 nM, in the presence of 1% DMSO).
After this incubation the reaction is stopped by the addition of 50 μl of bead-solution (500 mg beads/35 ml H2O, 18 mM zinc sulfate). In the following 45 minutes the beads have the opportunity to form a sediment. After that the scintillations are measured in the scintillation counter. If the tested compound is able to inhibit the enzymatic activity of the PDE4B-enzyme, less [^3H]AMP depending on the concentration of the tested compound is produced and less scintillations are measurable. […] The IC50-value stands for the compound concentration at which the PDE4B enzyme activity is inhibited to a half maximal value. Therefore the lower the IC50-value is the better is the PDE4B inhibition.

Sprague Dawley (SD) rats = test: Oral glucose tolerance test in overnight fasted male Sprague Dawley rats; format: in vivo, rat; conditions: 60 min before oral glucose load 2 g/kg, versus vehicle control
Protocol: An oral glucose tolerance test is performed in overnight fasted male Sprague Dawley (SD) rats (RjHan:SD), with a weight of 320-350 g. A pre-dose blood sample is obtained by tail bleed. Blood glucose is measured with a glucometer, and the animals are randomized for blood glucose (n=6/group). Subsequently, the groups receive a single oral administration of either vehicle alone (0.5% aqueous hydroxyethyl-cellulose) or vehicle containing one of the PDE4 inhibitors. The animals receive an oral glucose load (2 g/kg) 60 min after compound administration. Blood glucose is measured in tail blood 15 min, 30 min, 60 min, 90 min, and 120 min after the glucose challenge. Glucose excursion is quantified by calculating the reactive glucose AUC (area under the curve). The data are presented as mean±SEM (standard error of mean). The two-sided unpaired Student t-test is used for statistical comparison of the control group and the active groups.
“Cpd. A” is the PDE4 inhibitor Example 1.35 at a dose of 1 and 3 mg/kg. “Cpd. B” is the PDE4 inhibitor Example 1.46 at a dose of 1 and 3 mg/kg. P values versus control are indicated by symbols above the bars (*, p<0.05). Cpd. A (=Example 1.35) reduces glucose excursion by 13.2 (p=0.09) and 15.0% (p=0.11) with a dose of 1 and 3 mg/kg, respectively. Cpd. […] Cpd.

T1 sequence (Q07343 324-656): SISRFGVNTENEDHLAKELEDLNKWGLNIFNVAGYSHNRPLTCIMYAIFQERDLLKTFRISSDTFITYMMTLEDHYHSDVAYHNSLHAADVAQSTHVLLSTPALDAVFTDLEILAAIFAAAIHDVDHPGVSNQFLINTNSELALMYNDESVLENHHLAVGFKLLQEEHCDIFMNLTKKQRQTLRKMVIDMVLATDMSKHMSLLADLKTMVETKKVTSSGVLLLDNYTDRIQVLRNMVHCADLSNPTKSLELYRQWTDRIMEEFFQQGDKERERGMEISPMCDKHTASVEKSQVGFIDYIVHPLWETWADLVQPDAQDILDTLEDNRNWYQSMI

Row | SMILES | IC50 (PDE4B) | reduces glucose excursion (reactive glucose AUC) (Sprague Dawley (SD) rats; single oral dose 1 mg/kg) | reduces glucose excursion (reactive glucose AUC) (Sprague Dawley (SD) rats; single oral dose 3 mg/kg)
1 | [O-][S+]1CCc2nc(N3CCC(Oc4ccc(Cl)cc4)CC3)nc(NC3CCOCC3)c21 (centres unmarked) [Example 1.35, {2-[4-(4-chlorophenoxy)-piperidin-1-yl]-5-oxo-6,7-dihydro-5H-5λ^4-thieno[3,2-d]pyrimidin-4-yl}-(tetrahydropyran-4-yl)-amine] | 3.9 nM | 13.2% | 15.0%
2 | [O-][S+]1CCc2nc(N3CCC(c4ncc(Cl)cn4)CC3)nc(NC3(CO)CCC3)c21 (centres unmarked) [Example 1.46, (1-{2-[4-(5-Chloro-pyrimidin-2-yl)-piperidin-1-yl]-5-oxo-6,7-dihydro-5H-5λ^4-thieno[3,2-d]pyrimidin-4-yl-amino}-cyclobutyl)-methanol] |  | 26.8% | 18.4%
